Assay results: the NIST ThermoML archive (doi:10.1016/j.jct.2015.07.035)
± gives the expanded uncertainty stated by the source.

How the values were obtained:
[1] = 101.33 kPa, Liquid, Vibrating tube method
[2] = refractive index (Na D-line) (dimensionless); settings: 101.33 kPa, Liquid, Standard Abbe refractometry

SMILES | mass density ([1]; 298.2 K) [kg/m3] | refractive index ([2]; 298.2 K) | mass density ([1]; 303.2 K) [kg/m3] | refractive index ([2]; 303.2 K)
CC(O)c1ccccc1 (configuration not stated) [1-phenylethanol] | 1006.48 ± 1.1 | 1.52467 ± 0.00042 |  | 
Clc1ccccc1 [chlorobenzene] | 1101.08 ± 1.1 | 1.52165 ± 0.00042 |  | 
CC(C)CC(=O)O [3-methylbutanoic acid] | 921.34 ± 1.1 | 1.40124 ± 0.00042 |  | 
OC1CCCCC1 [cyclohexanol] |  |  | 941.42 ± 1.1 | 1.46238 ± 0.00042

The next lines start with the values.

mass density ([1]; 298.2 K) [kg/m3] | refractive index ([2]; 298.2 K) | mass density ([1]; 303.2 K) [kg/m3] | refractive index ([2]; 303.2 K) | SMILES
826.41 ± 1 | 1.43554 ± 0.00042 |  |  | CCCCCCCCCCO [decan-1-ol]
1039.32 ± 1.1 | 1.56019 ± 0.00042 |  |  | c1ccc(COCc2ccccc2)cc1 [dibenzyl ether]
